Reference: US10512624B2, “Long-chain amphipathic dicarboxylic acids for treatment of diabetes type-1” (Syndromex Ltd., priority 2016, dated 2019)

Tests used:
NOD mice [1] = assay: Prevention of overt type 1 diabetes (T1D) in NOD mice; format: in vivo, mouse
Experimental: NOD/LtJ mice (Harlan Laboratories) were bred in-house under pathogen-free conditions. Female mice (3-week old) were fed ad libitum from weaning on with standard chow (Harlan Teklad 2018), or with MEDICA16αα diet (0.04% (w/w) MEDICA16αα mixed in Teklad 2018, yielding a dose of 40 mg MEDICA16αα per kg body weight per day). Mice were monitored weekly for body weight and food consumption. Tail vein blood glucose was verified weekly from week 10th on, on a set day and hour. Mice were considered diabetic if presenting non-fasting blood glucose levels >300 mg/dl for 3 consecutive days. Diabetic mice were euthanized, and blood and tissues were sampled for further studies.

[2] = tested on: SHAM (control) non-diabetic rats; assay: Fasting blood glucose in SHAM (control) non-diabetic rats; format: in vivo, rat; conditions: oral 15 mg/kg b.i.d
Experimental: (§1) SHAM (control) rats were injected with 0.1 M of cold citrate buffer (pH 4.5). STZ diabetic or SHAM rats were dosed twice daily by gavage (orally) with 1% CMC (Sigma Aldrich C5678), or with HOOC—C(CH3)2—(CH2)12—C(CH3)2—COOH (2,2,15,15-tetramethylhexadecane-1,16-dioic acid) also termed herein “MEDICA16αα”, “Medica16αα” or M16αα(15 mg/kg body weight) suspended in 1% CMC, or injected intraperitoneal (i.p.) with Neutral Protamine Hagedorn (NPH) insulin (3 u/kg body weight b.i.d), as indicated.
(§2) Tail vein FBG was verified daily by a glucometer (Glucometer®, Accu-Check® Performa, Roche Diagnostics). Urine secretion, food and water consumption were measured in standard metabolic cages (Tecniplast™ Metabolic Cage Systems for Rodents) for 48 hour periods. Samples were collected and recorded every 12 hour.

STZ diabetic rats = assay: Anti-diabetic efficacy in streptozotocin (STZ) diabetic rats (FBG, IPGTT, IPITT, fluid balance, insulin/glucagon content); format: in vivo, rat
Experimental: Male Sprague-Dawley (SD) rats weighing 250-275 gr were fed ad libitum (Harlan Teklad 2018), had free access to water, and were kept on a 12:12 h light:dark cycle. Experimental type 1 diabetes (T1D) was induced in overnight fasted rats by a single intra-peritoneal injection of streptozotocin (STZ, 60 mg/kg body weight, Sigma Aldrich) freshly prepared in 0.1 M of cold citrate buffer (pH 4.5), followed by oral 10% glucose solution for the next 24 hours to overcome STZ-induced acute hypoglycemia. STZ diabetic rats (defined as having a fasting blood glucose (FBG) level higher than 300 mg/dl) were selected for further studies.
as §1
Administering a combination of Medica16αα and insulin was performed by treating STZ diabetic rats (FBG >300 mg/dl) with oral MEDICA16αα(15 mg/kg b.i.d) for five consecutive days, then MEDICA16αα-responsive rats were further treated with MEDICA16αα(15 mg/kg b.i.d) for 10 additional consecutive days (“STZ/MEDICA Res”), and MEDICA16αα non-responsive rats (FBG >250 mg/dl) were further treated for 10 additional consecutive days with either insulin Neutral Protamine Hagedorn (NPH) (3 u/kg b.i.d subcutaneously) (“STZ/NPH”), or with insulin NPH (3 u/kg b.i.d subcutaneously in combination with oral MEDICA16αα(15 mg/kg b.i.d) (“STZ/MEDICA NPH”).
as §2
Overnight fasted rats were injected i.p (1 gr glucose/kg bw) with 20% dextrose solution (Teva Medical). Tail vein blood was sampled on 0, 30, 60, 90 and 120 minutes following glucose injection.
Fasted rats (5 hours fast) were injected i.p (2 u/kg bw) with HumulinR insulin (Eli Lilly). Tail blood glucose levels were measured by glucometer at 0, 15, 30, 60, and 120 min following insulin injection.
Pancreas and plasma insulin and glucagon content were determined by insulin (Millipore, Cat #RI-13K) and glucagon (Millipore, Cat # GL-32K) radioimmunoassay (RIA) kits. cAMP levels were measured by cAMP kit (Arbor Assays, DetectX Cat # K019-H1).

NOD mice [3] = assay: Hyperinsulinemic-euglycemic clamp in pre-diabetic NOD mice; format: in vivo, mouse
Experimental: Clamps were carried out according to Vanderbilt Mouse Metabolic Phenotyping Center, Vanderbilt University School of Medicine protocol (28), with minor modifications, using HPLC-purified ^3H-glucose (specific activity 13.5 Ci/mmol, MT-914 Moravek Biochemicals, priming dose of 1 μC followed by continuous infusion of 0.05 μCi·min-1 for a 90 min equilibration period), HumulinR insulin (Eli Lilly, 4 mU·kg-1. min-1), and 10% glucose solution.
Clamps were carried out in conscious 12-14-week old NOD female mice fasted for 3 hours, 3 days following catheters' insertion. […] Plasma glucose specific activity was verified on 80, 90, 100, and 120 min following insulin infusion. On 120 min, 12-μCi bolus of ^14C-2-deoxyglucose (DG) (specific activity 274.6 mCi/mmol, MC-392 Moravek Biochemicals) was injected, followed by blood sampling on 122, 125, 130, 135, and 145 min, to determine blood glucose and 2-deoxyglucose activity.
Upon sacrifice, gastrocnemius, superficial vastus lateralis, and soleus muscles were removed, immediately frozen in liquid nitrogen, and stored at −70° C. until further analysis. Glucose appearance (Ra) and disappearance (Rd) were determined using Steele non-steady-state equations. Endogenous glucose production (EndoRt) was determined by subtracting the glucose infusion rate (GIR) from total glucose turnover (Rt). Glucose metabolic index in muscle (Rg) was calculated by the equation:
[formula] where 2[^14C]DGPtissue is the 2[^14C]DG radioactivity in muscle normalized to tissue weight (dpm/g tissue), AUC 2[^14C]DGplasma is the area under the plasma 2[^14C]DG disappearance curve (dpm·min·m1-1), and [arterial glucose] is the average blood glucose (mmol/1) during the 80-120 min clamp period. Immuno-Histochemistry

hypoglycemia [2]: did not result in hypoglycemia
Compound: CC(C)(CCCCCCCCCCCCC(C)(C)C(=O)O)C(=O)O [MEDICA16αα, 2,2,15,15-tetramethylhexadecane-1,16-dioic acid]
decrease in body weight gain (NOD mice [1]; NOD mice, 40 mg/kg per day in feed): 40%
NOD mice in which development of T1D was delayed or prevented (NOD mice [1]; oral in feed 40 mg/kg per day from weaning, 21 weeks (until week 26), 32% in non-treated group): 71%
pancreatic and/or plasma insulin and glucagon content (STZ diabetic rats; STZ diabetic rats, stand-alone treatment): not accounted for by significant increase in pancreatic and/or plasma insulin, neither by significant decrease in glucagon content
fluid consumption and excretion (STZ diabetic rats; STZ/MEDICA Res rats, stand-alone): partial decrease
blood glucose level in i.p glucose tolerance test (IPGTT) (STZ diabetic rats; STZ/MEDICA Res rats, stand-alone 15 mg/kg b.i.d): amelioration in blood glucose level
STZ diabetic rats in which FBG was normalized (FBG<250 mg/dL) (STZ diabetic rats; oral 15 mg/kg b.i.d, 10 consecutive days, stand-alone (no insulin), all-or-none response): about 40%
treated STZ diabetic rats that remained non responsive (FBG >250 mg/dl) (STZ diabetic rats; oral 15 mg/kg b.i.d, stand-alone): 60%
clamped plasma insulin (NOD mice [3]): decrease
deoxyglucose uptake into soleus and gastrocnemius muscles (NOD mice [3]): insulin-induced deoxyglucose uptake
endogenous glucose production (NOD mice [3]): insulin-induced decrease
increase in glucose infusion rate (GIR) (NOD mice [3]): 37%
total body glucose turnover (NOD mice [3]): increase
